Measurements from article PMC5218480 (PLoS ONE, 2017).

Tested on: MV-4-11 cells
Assay: Gene expression microarray analysis (Affymetrix PrimeView) and GSEA
Format: cell-based, human
Design: RFU PODN (11730768_x_at) / Fold change /veh PODN (11730768_x_at) / RFU LINC00158 (11744669_a_at) / Fold change /veh LINC00158 (11744669_a_at) / RFU DUSP10 (11751237_a_at) / Fold change /veh DUSP10 (11751237_a_at) / RFU ID3 (11757404_x_at) / Fold change /veh ID3 (11757404_x_at) / RFU PLEKHG5 (11737974_s_at) / Fold change /veh PLEKHG5 (11737974_s_at) / RFU LRRC4B (11730491_at) / Fold change /veh LRRC4B (11730491_at) / RFU GIMAP4 (11747438_a_at) / Fold change /veh GIMAP4 (11747438_a_at) / RFU KRT8 (11758183_x_at) / Fold change /veh KRT8 (11758183_x_at) / RFU CNN1 (11734310_a_at) / Fold change /veh CNN1 (11734310_a_at) / RFU VPS37D (11726825_at) / Fold change /veh VPS37D (11726825_at) / RFU C10orf10 (11716522_x_at) / Fold change /veh C10orf10 (11716522_x_at) / RFU KIR2DL2 /// KIR2DL4 /// KIR2DL5A /// KIR2DL5B /// KIR2DS1 /// KIR2DS2 /// KIR2DS3 /// KIR2DS4 /// KIR3DL3 /// KIR3DL3 /// KIR3DS1 (11738374_at) / Fold change /veh KIR2DL2 /// KIR2DL4 /// KIR2DL5A /// KIR2DL5B /// KIR2DS1 /// KIR2DS2 /// KIR2DS3 /// KIR2DS4 /// KIR3DL3 /// KIR3DL3 /// KIR3DS1 (11738374_at) / RFU C1QL1 (11718748_at) / Fold change /veh C1QL1 (11718748_at) / RFU TMPRSS4 (11747572_a_at) / Fold change /veh TMPRSS4 (11747572_a_at) / RFU HAMP (11756126_x_at) / Fold change /veh HAMP (11756126_x_at) / RFU RNFT2 (11725882_a_at) / Fold change /veh RNFT2 (11725882_a_at) / RFU NR4A2 (11747474_a_at) / Fold change /veh NR4A2 (11747474_a_at) / RFU ABCC12 (11746883_a_at) / Fold change /veh ABCC12 (11746883_a_at) / RFU TMEM136 (11760407_x_at) / Fold change /veh TMEM136 (11760407_x_at) / RFU CLDN22 /// WWC2 (11732394_at) / Fold change /veh CLDN22 /// WWC2 (11732394_at) / RFU HLA-DPB1 (11760878_x_at) / Fold change /veh HLA-DPB1 (11760878_x_at) / RFU SPINT1 (11716480_a_at) / Fold change /veh SPINT1 (11716480_a_at) / RFU GAP43 (11754022_s_at) / Fold change /veh GAP43 (11754022_s_at) / RFU A4GNT (11735810_at) / Fold change /veh A4GNT (11735810_at) / RFU PRB3 (11715151_x_at) / Fold change /veh PRB3 (11715151_x_at) / RFU TUBB4B (11761932_at) / Fold change /veh TUBB4B (11761932_at) / RFU CAPN14 (11732068_a_at) / Fold change /veh CAPN14 (11732068_a_at) / RFU TMCC2 (11721928_a_at) / Fold change /veh TMCC2 (11721928_a_at) / RFU IRGQ (11745062_a_at) / Fold change /veh IRGQ (11745062_a_at) / RFU FAM174B (11720279_a_at) / Fold change /veh FAM174B (11720279_a_at) / RFU TMPRSS4 (11748680_a_at) / Fold change /veh TMPRSS4 (11748680_a_at) / RFU FAM212B (11763350_a_at) / Fold change /veh FAM212B (11763350_a_at) / RFU PLEKHG5 (11743358_a_at) / Fold change /veh PLEKHG5 (11743358_a_at) / RFU ZSCAN30 (11745921_a_at) / Fold change /veh ZSCAN30 (11745921_a_at) / RFU CMKLR1 (11741424_a_at) / Fold change /veh CMKLR1 (11741424_a_at) / RFU LOC101060620 /// MAPK8IP1 (11723275_at) / Fold change /veh LOC101060620 /// MAPK8IP1 (11723275_at) / RFU SPTSSB (11747773_x_at) / Fold change /veh SPTSSB (11747773_x_at) / RFU PRSS12 (11739890_at) / Fold change /veh PRSS12 (11739890_at) / RFU BIN1 (11741810_x_at) / Fold change /veh BIN1 (11741810_x_at) / RFU WNT11 (11732464_a_at) / Fold change /veh WNT11 (11732464_a_at) / RFU C10orf10 (11716521_a_at) / Fold change /veh C10orf10 (11716521_a_at) / RFU C5orf56 (11738089_at) / Fold change /veh C5orf56 (11738089_at) / RFU CYB561 (11721691_x_at) / Fold change /veh CYB561 (11721691_x_at) / RFU ANKRD19P (11752326_a_at) / Fold change /veh ANKRD19P (11752326_a_at) / RFU OR2T12 /// OR2T33 /// OR2T8 (11738714_s_at) / Fold change /veh OR2T12 /// OR2T33 /// OR2T8 (11738714_s_at) / RFU VCAN (11748164_a_at) / Fold change /veh VCAN (11748164_a_at) / RFU JSRP1 (11732532_at) / Fold change /veh JSRP1 (11732532_at) / RFU KRTAP10-11 (11738290_x_at) / Fold change /veh KRTAP10-11 (11738290_x_at) / RFU MYO3A (11730013_a_at) / Fold change /veh MYO3A (11730013_a_at) / RFU EBF3 (11725865_a_at) / Fold change /veh EBF3 (11725865_a_at) / RFU CAMK2N1 (11719241_x_at) / Fold change /veh CAMK2N1 (11719241_x_at) / RFU C5orf56 (11738088_a_at) / Fold change /veh C5orf56 (11738088_a_at) / RFU OLFML3 (11715873_a_at) / Fold change /veh OLFML3 (11715873_a_at) / RFU LOC100653217 /// NTM (11731650_a_at) / Fold change /veh LOC100653217 /// NTM (11731650_a_at) / RFU MAPK11 (11762145_a_at) / Fold change /veh MAPK11 (11762145_a_at) / RFU FIZ1 (11724087_x_at) / Fold change /veh FIZ1 (11724087_x_at) / RFU OASL (11726364_x_at) / Fold change /veh OASL (11726364_x_at) / RFU SOX15 (11748057_x_at) / Fold change /veh SOX15 (11748057_x_at) / RFU CD79A (11719716_a_at) / Fold change /veh CD79A (11719716_a_at) / RFU HIST1H1D (11736915_at) / Fold change /veh HIST1H1D (11736915_at) / RFU CASKIN2 (11723855_a_at) / Fold change /veh CASKIN2 (11723855_a_at) / RFU LOC730098 (11760151_x_at) / Fold change /veh LOC730098 (11760151_x_at) / RFU OR4N2 (11742367_at) / Fold change /veh OR4N2 (11742367_at) / RFU PRRT2 (11749266_a_at) / Fold change /veh PRRT2 (11749266_a_at) / RFU SNX32 (11753110_a_at) / Fold change /veh SNX32 (11753110_a_at) / RFU CDHR5 (11726645_a_at) / Fold change /veh CDHR5 (11726645_a_at) / RFU RCAN1 (11760418_a_at) / Fold change /veh RCAN1 (11760418_a_at) / RFU FAM167A (11723789_a_at) / Fold change /veh FAM167A (11723789_a_at) / RFU FAM26E (11764081_at) / Fold change /veh FAM26E (11764081_at) / RFU ISYNA1 (11749810_s_at) / Fold change /veh ISYNA1 (11749810_s_at) / RFU ACY1 (11761880_at) / Fold change /veh ACY1 (11761880_at) / RFU 11764098_at / Fold change /veh 11764098_at / RFU SAMD14 (11745864_x_at) / Fold change /veh SAMD14 (11745864_x_at) / RFU NPB (11741838_a_at) / Fold change /veh NPB (11741838_a_at) / RFU TMPRSS6 (11731388_a_at) / Fold change /veh TMPRSS6 (11731388_a_at) / RFU KRTAP10-2 (11738614_at) / Fold change /veh KRTAP10-2 (11738614_at) / RFU ARHGAP8 /// PRR5-ARHGAP8 (11727945_x_at) / Fold change /veh ARHGAP8 /// PRR5-ARHGAP8 (11727945_x_at) / RFU KRTAP5-7 /// NADSYN1 (11734609_at) / Fold change /veh KRTAP5-7 /// NADSYN1 (11734609_at) / RFU RASL12 (11751679_a_at) / Fold change /veh RASL12 (11751679_a_at) / RFU CDKN2B (11736163_a_at) / Fold change /veh CDKN2B (11736163_a_at) / RFU PRF1 (11729649_at) / Fold change /veh PRF1 (11729649_at) / RFU, ZNF638 /// ZNF638-IT1 / Fold change vs veh, ZNF638 /// ZNF638-IT1 / RFU, PANK3 / Fold change vs veh, PANK3 / RFU, SH3YL1 / Fold change vs veh, SH3YL1 / RFU, ZEB2 / Fold change vs veh, ZEB2 / RFU, NRIP1 / Fold change vs veh, NRIP1 / RFU, PTTG1IP / Fold change vs veh, PTTG1IP / RFU, CAPN2 / Fold change vs veh, CAPN2 / RFU, MED14 / Fold change vs veh, MED14 / RFU, SNORA58 / Fold change vs veh, SNORA58 / RFU, C1orf63 / Fold change vs veh, C1orf63 / RFU, LRRFIP1 / Fold change vs veh, LRRFIP1 / RFU, NDUFAF7 / Fold change vs veh, NDUFAF7 / RFU, SLC12A2 / Fold change vs veh, SLC12A2 / RFU, IBTK / Fold change vs veh, IBTK / RFU, ESF1 / Fold change vs veh, ESF1 / Fold change vs veh, TMEM50B / RFU, TAOK1 / Fold change vs veh, TAOK1 / RFU, ACBD3 / Fold change vs veh, ACBD3 / RFU, TMA16 / Fold change vs veh, TMA16 / RFU, RWDD3 / Fold change vs veh, RWDD3 / RFU, BCAT1 / Fold change vs veh, BCAT1 / RFU, EDEM3 / Fold change vs veh, EDEM3 / RFU, TMEM33 / Fold change vs veh, TMEM33 / RFU, WDR75 / Fold change vs veh, WDR75 / RFU, AHCTF1 / Fold change vs veh, AHCTF1 / RFU, TFRC / Fold change vs veh, TFRC / RFU, ZDHHC17 / Fold change vs veh, ZDHHC17 / RFU, NOM1 / Fold change vs veh, NOM1 / RFU, ARL8B / Fold change vs veh, ARL8B / RFU, ZBTB11 / Fold change vs veh, ZBTB11 / RFU, TAMM41 / Fold change vs veh, TAMM41 / RFU, KIAA1704 /// LOC100996395 / Fold change vs veh, KIAA1704 /// LOC100996395 / RFU, ING1 / Fold change vs veh, ING1 / RFU, TRMT61B / Fold change vs veh, TRMT61B / RFU, FUBP3 / Fold change vs veh, FUBP3 / RFU, TP53 / Fold change vs veh, TP53 / RFU, TNKS2 / Fold change vs veh, TNKS2 / RFU, ZFP14 / Fold change vs veh, ZFP14 / RFU, ACTR2 / Fold change vs veh, ACTR2 / RFU, PPP3R1 / Fold change vs veh, PPP3R1 / RFU, PIK3R1 / Fold change vs veh, PIK3R1 / RFU, HNRNPA1 / Fold change vs veh, HNRNPA1 / RFU, RNF170 / Fold change vs veh, RNF170 / RFU, ZNF28 / Fold change vs veh, ZNF28 / RFU, RNGTT / Fold change vs veh, RNGTT / RFU, OGT / Fold change vs veh, OGT / RFU, BRD1 / Fold change vs veh, BRD1 / RFU, MARS / Fold change vs veh, MARS / RFU, ZNF655 / Fold change vs veh, ZNF655 / RFU, FAHD1 / Fold change vs veh, FAHD1 / RFU, BDP1 / Fold change vs veh, BDP1 / RFU, LRRCC1 / Fold change vs veh, LRRCC1 / RFU, ARID1A / Fold change vs veh, ARID1A / RFU, ZNF146 / Fold change vs veh, ZNF146 / RFU, ZNF330 / Fold change vs veh, ZNF330 / RFU, GPN3 / Fold change vs veh, GPN3 / RFU, C9orf123 / Fold change vs veh, C9orf123 / RFU, N4BP2L2 / Fold change vs veh, N4BP2L2 / RFU, ARFIP1 / Fold change vs veh, ARFIP1 / RFU, FAM179B / Fold change vs veh, FAM179B / RFU, BCL10 / Fold change vs veh, BCL10 / RFU, UHRF1BP1L / Fold change vs veh, UHRF1BP1L / RFU, BET1 / Fold change vs veh, BET1 / RFU, CNOT2 / Fold change vs veh, CNOT2 / RFU, ZNF268 / Fold change vs veh, ZNF268 / Fold change vs veh, ZNF507 / RFU, DGCR2 / Fold change vs veh, DGCR2 / RFU, WDSUB1 / Fold change vs veh, WDSUB1 / Fold change vs veh, HSP90B1 /// MIR3652 / RFU, ADSS / Fold change vs veh, ADSS / RFU, GK / Fold change vs veh, GK / RFU, ZNF148 / Fold change vs veh, ZNF148 / RFU, TAF9 / Fold change vs veh, TAF9 / RFU, SLC1A5 / Fold change vs veh, SLC1A5 / RFU, SLMO2 / Fold change vs veh, SLMO2 / RFU, ABCC4 / Fold change vs veh, ABCC4 / RFU, LOC101060439 /// RAP1B / Fold change vs veh, LOC101060439 /// RAP1B / RFU, RFX7 / Fold change vs veh, RFX7 / RFU, GTPBP10 / Fold change vs veh, GTPBP10 / RFU, CNEP1R1 / Fold change vs veh, CNEP1R1 / RFU, BIVM-ERCC5 /// ERCC5 / Fold change vs veh, BIVM-ERCC5 /// ERCC5 / RFU, ILF3 / Fold change vs veh, ILF3 / RFU 11762660_at / Fold change /veh 11762660_at / RFU VCAN (11757783_s_at) / Fold change /veh VCAN (11757783_s_at) / RFU DDX43 (11728927_at) / Fold change /veh DDX43 (11728927_at) / RFU KRT8 (11758188_x_at) / Fold change /veh KRT8 (11758188_x_at) / RFU NKD1 (11759106_at) / Fold change /veh NKD1 (11759106_at) / RFU SRD5A1 (11742802_a_at) / Fold change /veh SRD5A1 (11742802_a_at) / RFU TPSAB1 /// TPSB2 (11721975_s_at) / Fold change /veh TPSAB1 /// TPSB2 (11721975_s_at) / RFU GSTM3 (11746129_a_at) / Fold change /veh GSTM3 (11746129_a_at) / RFU IL23R (11737362_x_at) / Fold change /veh IL23R (11737362_x_at) / RFU TMEM51 (11727254_a_at) / Fold change /veh TMEM51 (11727254_a_at) / RFU PIWIL2 (11732686_x_at) / Fold change /veh PIWIL2 (11732686_x_at) / RFU ORM1 (11744905_x_at) / Fold change /veh ORM1 (11744905_x_at) / RFU CCDC152 (11743942_at) / Fold change /veh CCDC152 (11743942_at) / RFU ECM1 (11717891_a_at) / Fold change /veh ECM1 (11717891_a_at) / RFU IL23R (11748794_a_at) / Fold change /veh IL23R (11748794_a_at) / RFU TNFAIP8L3 (11732012_x_at) / Fold change /veh TNFAIP8L3 (11732012_x_at) / RFU MBOAT4 (11741988_at) / Fold change /veh MBOAT4 (11741988_at) / RFU 11764193_at / Fold change /veh 11764193_at / RFU TMEM53 (11763286_at) / Fold change /veh TMEM53 (11763286_at) / RFU MAGEB2 (11727129_at) / Fold change /veh MAGEB2 (11727129_at) / RFU TMEM200A (11744735_a_at) / Fold change /veh TMEM200A (11744735_a_at) / RFU CCDC152 (11751479_a_at) / Fold change /veh CCDC152 (11751479_a_at) / RFU FAM211A (11726209_a_at) / Fold change /veh FAM211A (11726209_a_at) / RFU RGS16 (11746705_a_at) / Fold change /veh RGS16 (11746705_a_at) / RFU VCAN (11755009_s_at) / Fold change /veh VCAN (11755009_s_at) / RFU RHOB (11743442_s_at) / Fold change /veh RHOB (11743442_s_at) / RFU RGS16 (11720943_a_at) / Fold change /veh RGS16 (11720943_a_at) / RFU RGS16 (11720944_at) / Fold change /veh RGS16 (11720944_at) / RFU, VPS4B / Fold change vs veh, VPS4B / RFU, CREB1 / Fold change vs veh, CREB1 / RFU, DNAJC13 / Fold change vs veh, DNAJC13 / RFU, GNAQ / Fold change vs veh, GNAQ / RFU, CDK5R1 / Fold change vs veh, CDK5R1 / RFU, ZRANB3 / Fold change vs veh, ZRANB3 / RFU, CUL4A / Fold change vs veh, CUL4A / RFU, CCNY / Fold change vs veh, CCNY / RFU, UFL1 / Fold change vs veh, UFL1 / RFU, COG3 / Fold change vs veh, COG3 / RFU, DIAPH2 / Fold change vs veh, DIAPH2 / RFU, SKA2 / Fold change vs veh, SKA2 / RFU, AFF3 / Fold change vs veh, AFF3 / RFU, LMF1 / Fold change vs veh, LMF1 / RFU, IPO11 / Fold change vs veh, IPO11 / RFU, DFFB / Fold change vs veh, DFFB / RFU, FOXP1 / Fold change vs veh, FOXP1 / RFU, CARD8 / Fold change vs veh, CARD8 / RFU, STRN3 / Fold change vs veh, STRN3 / RFU, ADK / Fold change vs veh, ADK / RFU, RASSF2 / Fold change vs veh, RASSF2 / RFU, WIPF1 / Fold change vs veh, WIPF1 / RFU, LARP1B / Fold change vs veh, LARP1B / RFU, RASA1 / Fold change vs veh, RASA1 / RFU, RB1 / Fold change vs veh, RB1 / RFU, PPFIA1 / Fold change vs veh, PPFIA1 / RFU, MAT2A / Fold change vs veh, MAT2A / RFU, CCT5 / Fold change vs veh, CCT5 / RFU, WDR92 / Fold change vs veh, WDR92 / RFU, CUX1 / Fold change vs veh, CUX1 / RFU, TTC7A / Fold change vs veh, TTC7A / RFU, TMEM135 / Fold change vs veh, TMEM135 / RFU, DEPTOR / Fold change vs veh, DEPTOR / RFU, CPM / Fold change vs veh, CPM / RFU, DNAJB6 / Fold change vs veh, DNAJB6 / RFU, CACNA2D3 / Fold change vs veh, CACNA2D3 / RFU, DTX4 / Fold change vs veh, DTX4 / RFU, TFCP2 / Fold change vs veh, TFCP2 / RFU, GMCL1 /// GMCL1P1 / Fold change vs veh, GMCL1 /// GMCL1P1 / RFU, AEBP2 / Fold change vs veh, AEBP2 / RFU, SNHG1 /// SNORD22 /// SNORD25 /// SNORD26 /// SNORD27 /// SNORD28 /// SNORD29 /// SNORD31 / Fold change vs veh, SNHG1 /// SNORD22 /// SNORD25 /// SNORD26 /// SNORD27 /// SNORD28 /// SNORD29 /// SNORD31 / Fold change (Aza/veh), C12orf56 (ProbeSet 11735607_a_at) / Fold change (ACY-1035/veh), C12orf56 (ProbeSet 11735607_a_at) / Fold change (Aza/veh), FGFR1OP (ProbeSet 11751329_s_at) / Fold change (ACY-1035/veh), FGFR1OP (ProbeSet 11751329_s_at) / Fold change (Aza/veh), VPS36 (ProbeSet 11739960_a_at) / Fold change (ACY-1035/veh), VPS36 (ProbeSet 11739960_a_at) / RFU SYPL1 (11715823_x_at) / Fold change /veh SYPL1 (11715823_x_at) / RFU IGFBP7 (11715501_s_at) / Fold change /veh IGFBP7 (11715501_s_at) / RFU REEP3 (11722064_at) / Fold change /veh REEP3 (11722064_at) / RFU IGLL1 (11728026_x_at) / Fold change /veh IGLL1 (11728026_x_at): dose or concentration left out as unconfirmed
Details: ProbeSet 11740011_at; LIST B

Nc1ccc(-c2cccs2)cc1NC(=O)c1ccc2c(c1)cc(C1CC1)n2CCN1CCOCC1 [ACY-1035]
RFU, ZFP14: 75.53 RFU
